From patent publication US20160264593A1 (priority 2013, published 2016)
“And” between values parts separate entries of the source, which are not always exact repeats. Equal entries are not always repeated. “Also recorded” adds a separate entry of the source. Where two headings read alike, the source gives them in different places.

Legend:
PP2A [1] = test: PP2A activity in mouse livers after IP dosing (PP2A immunoprecipitation phosphatase assay, malachite green); format: in vivo, Balb/c mice
Procedure, shortened: (§1)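 Female Balb/c mice (6-8 weeks) were dosed IP with compound in 4% sodium bicarbonate; brain and liver were harvested 3 h and 6 h post-dose. PP2A was immunoprecipitated from 240 μg lysate with anti-PP2A, using normal IgG as control. Phosphatase activity on a threonine phosphopeptide was read by malachite green absorbance against a phosphate standard curve.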

PP2A [2] = test: PP2A activity in mouse brains after IP dosing (PP2A immunoprecipitation phosphatase assay, malachite green); format: in vivo, Balb/c mice; details: for Average Conc. (group of 3 mice) / Average Relative Activity (group, vehicle = 100) / Conc. (phosphate, single reading, per mouse) / Mean Conc. (per mouse) / Mean Conc. less IgG blank (per mouse) / Relative Conc. (per mouse, to vehicle) / Relative PP2A Activity (per mouse, vehicle = 100): brain; for activity of PP2A in brains (statement): high dose IP
Procedure, shortened: as §1

[3] = tested on: glioblastoma (U-87) cells; test: WST cell viability assay, U-87 MG; format: cell-based; details: Homo sapiens, U-87 MG
lung cancer (A549) cells = test: WST cell viability assay, A549; format: cell-based; details: Homo sapiens, A549, read-out: IC50 A549
[4] = tested on: breast cancer (2LMP) cells; test: WST cell viability assay, 2LMP
Text: IC50 values were obtained for cytotoxicity against breast cancer (2LMP), glioblastoma (U-87) and lung cancer (A549) cells (See Table 5 and FIGS. 3-5).

[5] = IP, dose and time not specified
[6] = low dose IP (mpk: 100 0.75, 113 1.1, 151 0.8, 153 0.85, 157 1.0), 3 h, liver
[7] = low dose IP (mpk: 100 0.75, 113 1.1, 151 0.8, 153 0.85, 157 1.0), 6 h, liver
[8] = high dose IP (mpk: 100 1.5, 113 2.2, 151 1.6, 153 1.7, 157 2.0), 3 h
[9] = high dose IP (mpk: 100 1.5, 113 2.2, 151 1.6, 153 1.7, 157 2.0), 6 h
[10] = low dose IP (mpk: 100 0.75, 113 1.1, 151 0.8, 153 0.85, 157 1.0), 3 h
[11] = low dose IP (mpk: 100 0.75, 113 1.1, 151 0.8, 153 0.85, 157 1.0), 6 h

CCCOC(=O)C1C2CCC(O2)C1C(=O)N1CCN(C)CC1 (stereo not shown) [Compound 153, 3-(4-Methylpiperazine-1-carbonyl)-7-oxa-bicyclo[2,2,1]heptane-2-carboxylic acid propyl ester]
PP2A activity in the liver of mice (statement) (PP2A [1]; [5]): inhibited PP2A activity | activity of PP2A in livers as compared with vehicle (statement) (PP2A [1]; high dose IP, 6 h post treatment): significantly inhibited | Average Conc. (group of 3 mice) (PP2A [1]; [6]): 387.63 | Average Relative Activity (group, vehicle = 100) (PP2A [1]; [6]): 92.3 | Conc. (phosphate, single reading, per mouse) (PP2A [1]; [6]): 445.88 and 461.99 and 441.96 and 438.48 and 396.24 and 414.09 | Mean Conc. (per mouse) (PP2A [1]; [6]): 453.94 and 440.22 and 405.17 | Mean Conc. less IgG blank (per mouse) (PP2A [1]; [6]): 408.46 and 394.74 and 359.69 | Relative Conc. (per mouse, to vehicle) (PP2A [1]; [6]): 0.97 and 0.94 and 0.86 | Relative PP2A Activity (per mouse, vehicle = 100) (PP2A [1]; [6]): 97.26 and 93.99 and 85.65 | Average Conc. (group of 3 mice) (PP2A [1]; [7]): 364.7 | Average Relative Activity (group, vehicle = 100) (PP2A [1]; [7]): 82.05 | PP2A activity in the brain of mice (statement) (PP2A [2]; [5]): inhibited PP2A activity | Average Conc. (group of 3 mice) (PP2A [2]; [8]): 1620.00 | Average Relative Activity (group, vehicle = 100) (PP2A [2]; [8]): 65.73 | Conc. (phosphate, single reading, per mouse) (PP2A [2]; [8]): 2278.33 and 2174.47 and 1309.82 and 1252.91 and 1475.88 and 1456.77 | Mean Conc. (per mouse) (PP2A [2]; [8]): 2226.40 and 1281.36 and 1466.33 | Mean Conc. less IgG blank (per mouse) (PP2A [2]; [8]): 2188.37 and 1243.34 and 1428.30 | Relative Conc. (per mouse, to vehicle) (PP2A [2]; [8]): 1.01 and 0.57 and 0.66 | Relative PP2A Activity (per mouse, vehicle = 100) (PP2A [2]; [8]): 88.79 and 50.45 and 57.95 | Average Conc. (group of 3 mice) (PP2A [2]; [9]): 1696.22 | Average Relative Activity (group, vehicle = 100) (PP2A [2]; [9]): 61.07 | Conc. (phosphate, single reading, per mouse) (PP2A [2]; [9]): 1822.84 and 1778.73 and 1685.64 and 1802.51 and 1690.72 and 1625.07 | Mean Conc. (per mouse) (PP2A [2]; [9]): 1800.78 and 1744.07 and 1657.89 | Mean Conc. less IgG blank (per mouse) (PP2A [2]; [9]): 1762.76 and 1706.05 and 1619.87 | Relative Conc. (per mouse, to vehicle) (PP2A [2]; [9]): 0.72 and 0.70 and 0.66 | Relative PP2A Activity (per mouse, vehicle = 100) (PP2A [2]; [9]): 63.47 and 61.43 and 58.32 | activity of PP2A in brains (statement) (PP2A [2]; 3 h): more effectively than compound 100 | activity of PP2A in brains (statement) (PP2A [2]; 6 h): significantly inhibited; also recorded: more effectively than compound 100 | PP2A activity in brains as compared with vehicle (PP2A [2]; high doses IP, 6 h post treatment): 61% | Average Conc. (group of 3 mice) (PP2A [2]; [10]): 2159.78 | Average Relative Activity (group, vehicle = 100) (PP2A [2]; [10]): 87.63 | Conc. (phosphate, single reading, per mouse) (PP2A [2]; [10]): 2670.21 and 2571.02 and 1916.94 and 1817.15 and 2140.93 and 2070.60 | Mean Conc. (per mouse) (PP2A [2]; [10]): 2620.61 and 1867.04 and 2105.77 | Mean Conc. less IgG blank (per mouse) (PP2A [2]; [10]): 2582.58 and 1829.02 and 2067.74 | Relative Conc. (per mouse, to vehicle) (PP2A [2]; [10]): 1.19 and 0.84 and 0.95 | Relative PP2A Activity (per mouse, vehicle = 100) (PP2A [2]; [10]): 104.78 and 74.21 and 83.90 | Average Conc. (group of 3 mice) (PP2A [2]; [11]): 2104.97 | Average Relative Activity (group, vehicle = 100) (PP2A [2]; [11]): 75.79 | Conc. (phosphate, single reading, per mouse) (PP2A [2]; [11]): 1969.99 and 2070.60 and 2070.20 and 2078.94 and 2387.89 and 2280.36 | Mean Conc. (per mouse) (PP2A [2]; [11]): 2020.30 and 2074.57 and 2334.12 | Mean Conc. less IgG blank (per mouse) (PP2A [2]; [11]): 1982.27 and 2036.54 and 2296.10 | Relative Conc. (per mouse, to vehicle) (PP2A [2]; [11]): 0.81 and 0.83 and 0.94 | Relative PP2A Activity (per mouse, vehicle = 100) (PP2A [2]; [11]): 71.37 and 73.33 and 82.67 | IC50 ([3]; read-out: IC50 U-87 MG, WST-20131017 (first value of the cell)): > 100 µM | IC50 ([3]; read-out: IC50 U-87 MG, WST-20131024 (second value of the cell)): > 100 µM | IC50 (lung cancer (A549) cells): > 100 µM | cytotoxicity against breast cancer cells (statement) ([4]; WST, 2LMP): cytotoxic | IC50 ([4]; read-out: IC50 2LMP, WST-20131015 (first value of the cell)): 69.1 µM | IC50 ([4]; read-out: IC50 2LMP, WST-20131025 (second value of the cell)): 62 µM
